Test results taken from ChEMBL document CHEMBL4364293, “Design, Synthesis, and Structure-Activity Relationship of 7-Propanamide Benzoxaboroles as Potent Anticancer Agents” (J Med Chem, 2019).

Legend:
SK-OV-3 = experiment: Antiproliferative activity against human SKOV3 cells after 72 hrs by MTT assay; assay type: functional, cell-based; conditions: SK-OV-3, 72 h
MDA-MB-231 = experiment: Antiproliferative activity against human MDA-MB-231 cells after 72 hrs by MTT assay; assay type: functional, cell-based; conditions: MDA-MB-231, 72 h
HCT-116 = experiment: Antiproliferative activity against human HCT116 cells after 72 hrs by MTT assay; assay type: functional, cell-based; conditions: HCT-116, 72 h
WI-38 = experiment: Cytotoxicity against human WI38 cells after 72 hrs by MTT assay; assay type: cell-based; conditions: WI-38, 72 h

Structure (SMILES) | IC50 (SK-OV-3) [µM] | IC50 (MDA-MB-231) [µM] | IC50 (HCT-116) [µM] | IC50 (WI-38) [µM]
O=C(CCc1cccc2c1B(O)OC2)Nc1cccc(-c2cccc(C(F)(F)F)c2)c1 | 0.39 | 0.41 | 0.58 | 23
O=C(CCc1cccc2c1B(O)OC2)NCCc1ccccc1 | > 100 | > 100 | > 100 | > 100
CC(=O)c1ccc(-c2cccc(NC(=O)CCc3ccccc3)c2)cc1 | 3.2 | 2.7 | 4 | 13
O=C(CCc1ccccc1)Nc1ccccc1 | > 100 | > 100 | > 100 | > 100
O=C(CCc1cccc2c1B(O)OC2)Nc1ccc2ccccc2c1 | 1.4 | 1.8 | 1.7 | > 100
COc1ccc(NC(=O)CCc2cccc3c2B(O)OC3)cc1 | 0.9 | 0.85 | 1.7 | > 100
COc1cccc2c1C(=O)c1c(O)c3c(c(O)c1C2=O)C[C@@](O)(C(=O)CO)C[C@@H]3O[C@H]1C[C@H](N)[C@H](O)[C@H](C)O1 [DOXORUBICIN] | 0.032 | 0.0069 | 0.023 | 0.59
O=C(CCc1cccc2c1B(O)OC2)Nc1ccc(Cl)cc1 | 5 | 3.6 | 12 | > 100
O=C(CCc1cccc2c1B(O)OC2)Nc1cccc(-c2cccc(OC(F)(F)F)c2)c1 | 0.46 | 0.46 | 0.31 | 9.8
O=C(CCc1cccc2c1B(O)OC2)Nc1cccc(-c2ccc(C(F)(F)F)cc2)c1 | 0.5 | 0.51 | 0.55 | 26
N#Cc1cccc(-c2cccc(NC(=O)CCc3cccc4c3B(O)OC4)c2)c1 | 0.12 | 0.11 | 0.14 | 7.3
COc1cccc(-c2cccc(NC(=O)CCc3ccc4c(c3)B(O)OC4)c2)c1 | 62 | 49 | 21 | > 100
COc1ccc(NC(=O)CCc2cccc3c2B(O)OC3)cc1OC | > 100 | > 100 | > 100 | > 100
Cc1cc(C)c(NC(=O)CCc2cccc3c2B(O)OC3)c(C)c1 | 19 | 71 | 64 | 74
O=C(CCc1cccc2c1B(O)OC2)Nc1cccc(Br)c1 | 0.54 | 0.72 | 1.4 | 20
COc1cccc(-c2cccc(NC(=O)CCc3ccccc3)c2)c1 | 24 | 25 | 40 | > 100
O=C(CCc1cccc2c1B(O)OC2)Nc1nccs1 | > 100 | > 100 | > 100 | > 100
N#Cc1ccc(-c2cccc(NC(=O)CCc3cccc4c3B(O)OC4)c2)cc1 | 0.34 | 0.38 | 0.41 | 12
O=C(O)CCc1cccc2c1B(O)OC2 | > 100 | > 100 | > 100 | > 100
O=C(CCc1cccc2c1B(O)OC2)NC1CCCCC1 | > 100 | > 100 | > 100 | > 100
O=C(CCc1cccc2c1B(O)OC2)Nc1cccc(-c2cccc(F)c2)c1 | 0.48 | 0.57 | 0.46 | 37

Structure (SMILES) | IC50 (SK-OV-3) [µM] | IC50 (MDA-MB-231) [µM] | IC50 (HCT-116) [µM] | IC50 (WI-38) [µM]
COc1cc(OC)cc(-c2cccc(NC(=O)CCc3ccc4c(c3)COB4O)c2)c1 | 93 | 77 | 56 | > 100
O=C(CCc1cccc2c1B(O)OC2)Nc1ccc([N+](=O)[O-])cc1 | 83 | 36 | > 100 | > 100
C#Cc1ccc(NC(=O)CCc2cccc3c2B(O)OC3)cc1 | 6.3 | 6.6 | 45 | > 100
CC(=O)c1ccc(-c2cccc(NC(=O)CCc3cccc4c3C(O)OC4)c2)cc1 (centres undefined) | 41 | 29 | 18 | > 100
O=C(CCc1cccc2c1B(O)OC2)Nc1ccc(I)cc1 | 51 | 33 | 50 | 49
O=C(CCc1cccc2c1B(O)OC2)Nc1cccc2ccccc12 | 0.17 | 0.15 | 0.2 | 1.2
O=C(CCc1cccc2c1B(O)OC2)Nc1ccc(F)cc1 | 0.72 | 0.44 | 0.65 | 12
COc1cccc(-c2cccc(NC(=O)CCc3ccc4c(c3)COB4O)c2)c1 | > 100 | 90 | 81 | > 100
CC(=O)c1ccc(-c2cccc(NC(=O)CCc3ccc4c(c3)COB4O)c2)cc1 | 79 | 66 | 63 | > 100
CC(=O)c1cccc(-c2cccc(NC(=O)CCc3cccc4c3B(O)OC4)c2)c1 | 0.068 | 0.052 | 0.086 | 2.2
C#Cc1cccc(NC(=O)CCc2cccc3c2B(O)OC3)c1 | 0.98 | 1.6 | 3.6 | > 100
CC(C)(C)NC(=O)CCc1cccc2c1B(O)OC2 | > 100 | > 100 | > 100 | > 100
CC(C)(C)OC(=O)Nc1ccc(NC(=O)CCc2cccc3c2B(O)OC3)cc1 | > 100 | 29 | 24 | > 100
COc1cccc(-c2cccc(NC(=O)CCc3cccc4c3C(O)OC4)c2)c1 (centres undefined) | 61 | 52 | 49 | 93
C#Cc1ccccc1NC(=O)CCc1cccc2c1B(O)OC2 | 0.82 | 1.3 | 1.4 | 18
OB1OCc2cc(F)ccc21 [TAVABOROLE] | > 100 | > 100 | 65 | 32
CC(C)(C)c1ccc(NC(=O)CCc2cccc3c2B(O)OC3)cc1 | 4.2 | 33 | 19 | 55
CSc1ccc(-c2cccc(NC(=O)CCc3cccc4c3B(O)OC4)c2)cc1 | 0.14 | 0.14 | 0.18 | 3.8
Cc1ccc(NC(=O)CCc2cccc3c2B(O)OC3)cc1Br | 0.6 | 0.87 | 1.2 | 15
O=C(CCc1cccc2c1B(O)OC2)Nc1cccc(I)c1 | 0.63 | 5.3 | 2.3 | 71
O=C(CCc1cccc2c1B(O)OC2)Nc1cccc(-c2cccc(Cl)c2)c1 | 0.3 | 0.25 | 0.35 | 58

Structure (SMILES) | IC50 (SK-OV-3) [µM] | IC50 (MDA-MB-231) [µM] | IC50 (HCT-116) [µM] | IC50 (WI-38) [µM]
COc1cccc(-c2cccc(NC(=O)CCc3cccc4c3COB4O)c2)c1 | 78 | 76 | 46 | > 100
CC(C)c1cccc(NC(=O)CCc2cccc3c2B(O)OC3)c1 | 0.51 | 1.6 | 1.6 | 22
COc1cc(OC)cc(-c2cccc(NC(=O)CCc3ccc4c(c3)B(O)OC4)c2)c1 | 29 | 21 | 3.7 | > 100
Cc1ccc(NC(=O)CCc2cccc3c2B(O)OC3)cc1 | 0.86 | 1.1 | 4.5 | > 100
CSc1cccc(-c2cccc(NC(=O)CCc3cccc4c3B(O)OC4)c2)c1 | 0.15 | 0.15 | 0.11 | 2
CCOC(=O)c1ccc(NC(=O)CCc2cccc3c2B(O)OC3)cc1 | > 100 | > 100 | > 100 | > 100
O=C(CCc1cccc2c1B(O)OC2)Nc1cccc(-c2ccc(Cl)cc2)c1 | 0.22 | 0.26 | 0.38 | 9.8
CC(=O)c1ccc(-c2cccc(NC(=O)CCc3ccc4c(c3)B(O)OC4)c2)cc1 | > 100 | 59 | 19 | > 100
CC(=O)c1ccc(-c2cccc(NC(=O)CCc3cccc4c3COB4O)c2)cc1 | 57 | 41 | 48 | > 100
COc1ccccc1NC(=O)CCc1cccc2c1B(O)OC2 | 0.2 | 0.93 | 0.43 | 1.6
O=C(CCc1cccc2c1C(O)OC2)Nc1ccccc1 (centres undefined) | 78 | 12 | 22 | 42
COc1cc(OC)cc(-c2cccc(NC(=O)CCc3ccccc3)c2)c1 | > 100 | 87 | > 100 | > 100
O=C(/C=C/c1cccc2c1B(O)OC2)Nc1ccccc1 | > 100 | > 100 | > 100 | > 100
O=C(CCc1cccc2c1B(O)OC2)Nc1cccc(-c2ccccc2)c1 | 0.25 | 0.22 | 0.89 | 12
O=C(CCc1cccc2c1B(O)OC2)Nc1ccc(Br)cc1 | 9.2 | 5.3 | 46 | 42
O=C(CCc1cccc2c1B(O)OC2)NCc1ccccc1 | > 100 | > 100 | > 100 | > 100
COc1cc(OC)cc(-c2cccc(NC(=O)CCc3cccc4c3B(O)OC4)c2)c1 | 0.044 | 0.04 | 0.053 | 1.7
OB1OCc2ccccc21 [BENZOXABOROLE] | > 100 | > 100 | > 100 | 58
O=C(CCc1cccc2c1B(O)OC2)Nc1ccccc1-c1ccccc1 | 26 | 18 | 23 | 77
